ChEMBL document CHEMBL3044789, “Comparing weed and crop seedling response to pre-emergence pendimethalin application in Corchorus olitorius and Abelmoschus esculentus” (Crop Prot, 2006)

Assays:
[1] = tested on: Synedrella nodiflora; assay: Herbicidal activity against Synedrella nodiflora in Corchorus olitorius plots assessed as weed recovery at 0.33 kg a.i/ha after 2 weeks (reference value: 78.3 +/- 0.74 %); format: functional
[2] = tested on: Ageratum conyzoides; assay: Herbicidal activity against Ageratum conyzoides in Abelmoschus esculentus plots assessed as weed cover at 1.32 kg a.i/ha after 7 weeks (reference value: 14.7 +/- 0.46 %); format: functional
[3] = tested on: Chromolaena odorata; assay: Herbicidal activity against Chromolaena odorata in Corchorus olitorius plots assessed as weed cover at 0.33 kg a.i/ha after 2 weeks (reference value: 81.7 +/- 0.43 %); format: functional
[4] = tested on: Commelina diffusa; assay: Herbicidal activity against Commelina diffusa in Abelmoschus esculentus plots assessed as weed cover at 0.66 kg a.i/ha after 7 weeks (reference value: 14.7 +/- 0.46 %); format: functional
[5] = tested on: Synedrella nodiflora; assay: Herbicidal activity against Synedrella nodiflora in Corchorus olitorius plots assessed as weed cover at 0.66 kg a.i/ha after 2 weeks (reference value: 81.7 +/- 0.43 %); format: functional
[6] = tested on: Synedrella nodiflora; assay: Herbicidal activity against Synedrella nodiflora in Abelmoschus esculentus plots assessed as weed recovery at 0.33 kg a.i/ha after 2 weeks (reference value: 60.1 +/- 0.46 %); format: functional
[7] = tested on: Abelmoschus esculentus; assay: Phytotoxicity in Abelmoschus esculentus assessed as shoot length at 0.33 kg a.i/ha applied as solution after 7 weeks (reference value: 28.7 +/- 0.34 mm); format: organism-based; conditions: in vivo, other, 1176 h
[8] = tested on: Cyperus rotundus; assay: Herbicidal activity against Cyperus rotundus in Abelmoschus esculentus plots assessed as weed cover at 0.66 kg a.i/ha after 7 weeks (reference value: 14.7 +/- 0.46 %); format: functional
[9] = tested on: Mimosa pudica; assay: Herbicidal activity against Mimosa pudica in Abelmoschus esculentus plots assessed as minor weed growth at 0.33 kg a.i/ha after 2 weeks; format: functional
[10] = tested on: Synedrella nodiflora; assay: Herbicidal activity against Synedrella nodiflora in Corchorus olitorius plots assessed as minor weed growth at 0.66 kg a.i/ha after 2 weeks; format: functional
[11] = tested on: Euphorbia heterophylla; assay: Herbicidal activity against Euphorbia heterophylla in Corchorus olitorius plots assessed as major weed growth at 0.99 kg a.i/ha after 2 weeks; format: functional
[12] = tested on: Commelina diffusa; assay: Herbicidal activity against Commelina diffusa in Abelmoschus esculentus plots assessed as weed cover at 0.66 kg a.i/ha after 4 weeks (reference value: 22.6 +/- 0.49 %); format: functional
[13] = tested on: Calopogonium mucunoides; assay: Herbicidal activity against Calopogonium mucunoides in Corchorus olitorius plots assessed as major weed growth at 0.33 kg a.i/ha after 2 weeks; format: functional
[14] = tested on: Euphorbia heterophylla; assay: Herbicidal activity against Euphorbia heterophylla in Abelmoschus esculentus plots assessed as weed cover at 0.33 kg a.i/ha after 4 weeks (reference value: 22.6 +/- 0.49 %); format: functional
[15] = tested on: Cyperus rotundus; assay: Herbicidal activity against Cyperus rotundus in Corchorus olitorius plots assessed as weed cover at 0.66 kg a.i/ha after 7 weeks (reference value: 1.7 +/- 0.56 %); format: functional
[16] = tested on: Talinum fruticosum; assay: Herbicidal activity against Talinum fruticosum in Corchorus olitorius plots assessed as weed cover at 0.99 kg a.i/ha after 4 weeks (reference value: 20.1+/- 0.57 %); format: functional
[17] = tested on: Calopogonium mucunoides; assay: Herbicidal activity against Calopogonium mucunoides in Corchorus olitorius plots assessed as weed recovery at 1.32 kg a.i/ha after 2 weeks (reference value: 78.3 +/- 0.74 %); format: functional
[18] = tested on: Euphorbia heterophylla; assay: Herbicidal activity against Euphorbia heterophylla in Abelmoschus esculentus plots assessed as weed cover at 1.32 kg a.i/ha after 4 weeks (reference value: 22.6 +/- 0.49 %); format: functional
[19] = tested on: Euphorbia heterophylla; assay: Herbicidal activity against Euphorbia heterophylla in Abelmoschus esculentus plots assessed as major weed growth at 0.33 kg a.i/ha after 2 weeks; format: functional
[20] = tested on: Asteraceae; assay: Herbicidal activity against Aspilia africana in Corchorus olitorius plots assessed as weed cover at 0.66 kg a.i/ha after 7 weeks (reference value: 1.7 +/- 0.56 %); format: functional
[21] = tested on: Ageratum conyzoides; assay: Herbicidal activity against Ageratum conyzoides in Corchorus olitorius plots assessed as major weed growth at 0.33 kg a.i/ha after 2 weeks; format: functional
[22] = tested on: Synedrella nodiflora; assay: Herbicidal activity against Synedrella nodiflora in Corchorus olitorius plots assessed as weed cover at 0.66 kg a.i/ha after 4 weeks (reference value: 20.1+/- 0.57 %); format: functional
[23] = tested on: Ageratum conyzoides; assay: Herbicidal activity against Ageratum conyzoides in Abelmoschus esculentus plots assessed as minor weed growth at 1.32 kg a.i/ha after 2 weeks; format: functional
[24] = tested on: Euphorbia heterophylla; assay: Herbicidal activity against Euphorbia heterophylla in Abelmoschus esculentus plots assessed as weed cover at 0.33 kg a.i/ha after 2 weeks (reference value: 63.5 +/- 0.29 %); format: functional
[25] = tested on: Calopogonium mucunoides; assay: Herbicidal activity against Calopogonium mucunoides in Abelmoschus esculentus plots assessed as weed cover at 1.32 kg a.i/ha after 7 weeks (reference value: 14.7 +/- 0.46 %); format: functional
[26] = tested on: Abelmoschus esculentus; assay: Phytotoxicity in Abelmoschus esculentus assessed as seed germination at 0.33 kg a.i/ha applied as solution after 7 weeks (reference value: 85.7 +/- 0.36 %); format: organism-based; conditions: in vivo, other, 1176 h
[27] = tested on: Calopogonium mucunoides; assay: Herbicidal activity against Calopogonium mucunoides in Abelmoschus esculentus plots assessed as weed cover at 0.99 kg a.i/ha after 4 weeks (reference value: 22.6 +/- 0.49 %); format: functional
[28] = tested on: Ageratum conyzoides; assay: Herbicidal activity against Ageratum conyzoides in Abelmoschus esculentus plots assessed as weed cover at 1.32 kg a.i/ha after 2 weeks (reference value: 63.5 +/- 0.29 %); format: functional
[29] = tested on: Euphorbia heterophylla; assay: Herbicidal activity against Euphorbia heterophylla in Corchorus olitorius plots assessed as weed cover at 0.99 kg a.i/ha after 2 weeks (reference value: 81.7 +/- 0.43 %); format: functional
[30] = tested on: Abelmoschus esculentus; assay: Phytotoxicity in Abelmoschus esculentus assessed as shoot length at 1.32 kg a.i/ha applied as solution after 7 weeks (reference value: 28.7 +/- 0.34 mm); format: organism-based; conditions: in vivo, other, 1176 h
[31] = tested on: Corchorus olitorius; assay: Phytotoxicity in Corchorus olitorius assessed as seedling emergence at 0.33 kg a.i/ha treated to soil after 7 weeks (reference value: 95 +/- 0.05 %); format: organism-based; conditions: in vivo, other, 1176 h
[32] = tested on: Corchorus olitorius; assay: Phytotoxicity in Corchorus olitorius assessed as root length at 1.32 kg a.i/ha applied as solution after 7 weeks (reference value: 14.3 +/- 1.06 mm); format: organism-based; conditions: in vivo, other, 1176 h
[33] = tested on: Euphorbia heterophylla; assay: Herbicidal activity against Euphorbia heterophylla in Corchorus olitorius plots assessed as weed cover at 0.33 kg a.i/ha after 7 weeks (reference value: 1.7 +/- 0.56 %); format: functional
[34] = tested on: Synedrella nodiflora; assay: Herbicidal activity against Synedrella nodiflora in Corchorus olitorius plots assessed as weed cover at 1.32 kg a.i/ha after 7 weeks (reference value: 1.7 +/- 0.56 %); format: functional
[35] = tested on: Euphorbia heterophylla; assay: Herbicidal activity against Euphorbia heterophylla in Corchorus olitorius plots assessed as weed recovery at 1.32 kg a.i/ha after 2 weeks (reference value: 78.3 +/- 0.74 %); format: functional
[36] = tested on: Calopogonium mucunoides; assay: Herbicidal activity against Calopogonium mucunoides in Corchorus olitorius plots assessed as weed cover at 0.99 kg a.i/ha after 4 weeks (reference value: 20.1+/- 0.57 %); format: functional

**Q.** For CCC(CC)Nc1c([N+](=O)[O-])cc(C)c(C)c1[N+](=O)[O-] [PENDIMETHALIN], which Activity [1] is on record?
**A.** 31.7%

**Q.** And the Activity [2]?
**A.** 82.4%

**Q.** And the Activity [3]?
**A.** 63.3%

**Q.** And the Activity [4]?
**A.** 90%

**Q.** And the Activity [5]?
**A.** 51.7%

**Q.** And the Activity [6]?
**A.** 39.2%

**Q.** And the Activity [7]?
**A.** 14.5 mm

**Q.** And the Activity [8]?
**A.** 90%

**Q.** What about the Activity [9] of the same molecule?
**A.** 1 /m2

**Q.** And the Activity [10]?
**A.** 1 /m2

**Q.** And the Activity [11]?
**A.** 31 /m2

**Q.** What about the Activity [12] of the same molecule?
**A.** 47.9%

**Q.** What about the Activity [13] of the same molecule?
**A.** 31 /m2

**Q.** What about the Activity [14] of the same molecule?
**A.** 53.8%

**Q.** What about the Activity [15] of the same molecule?
**A.** 100%

**Q.** And the Activity [16]?
**A.** 48.3%

**Q.** And the Activity [17]?
**A.** 13.3%

**Q.** And the Activity [18]?
**A.** 36.2%

**Q.** And the Activity [19]?
**A.** 31 /m2

**Q.** And the Activity [20]?
**A.** 100%

**Q.** And the Activity [21]?
**A.** 31 /m2

**Q.** What about the Activity [22] of the same molecule?
**A.** 63.3%

**Q.** What about the Activity [23] of the same molecule?
**A.** 1 /m2

**Q.** What about the Activity [24] of the same molecule?
**A.** 56.8%

**Q.** And the Activity [25]?
**A.** 82.4%

**Q.** What about the Activity [26] of the same molecule?
**A.** 52.7%

**Q.** What about the Activity [27] of the same molecule?
**A.** 39.2%

**Q.** And the Activity [28]?
**A.** 45%

**Q.** And the Activity [29]?
**A.** 51.7%

**Q.** And the Activity [30]?
**A.** 14.6 mm

**Q.** What about the Activity [31] of the same molecule?
**A.** 85%

**Q.** What about the Activity [32] of the same molecule?
**A.** 2.4 mm

**Q.** What about the Activity [33] of the same molecule?
**A.** 100%

**Q.** What about the Activity [34] of the same molecule?
**A.** 95%

**Q.** What about the Activity [35] of the same molecule?
**A.** 13.3%

**Q.** And the Activity [36]?
**A.** 48.3%
